For assay [1], the system named is Cutibacterium acnes. In words: Antibacterial activity against erythromycin-resistant Propionibacterium acnes GE4E carrying Erm(X) gene. Format: functional.
Assay [2] can be described thus: Inhibition of ribosomal activity in erythromycin-sensitive Escherichia coli BL21 S30 extracts assessed as inhibition of luciferase activity by transcriptional and translational assay. Format: subcellular, Ribosome.
The subject of assay [3] is Cutibacterium acnes. In words: Antibacterial activity against erythromycin-resistant Propionibacterium acnes with G2057A mutation in domain V of 23S rRNA. In kind it is functional.
Assay [4] deals with Cutibacterium acnes. In words: Antibacterial activity against erythromycin-resistant Propionibacterium acnes with A2058G mutation in domain V of 23S rRNA. In kind it is functional.
Assay [5] deals with Cutibacterium acnes. Kind of assay: Antibacterial activity against erythromycin-sensitive Propionibacterium acnes EG7NS. Format: functional.
In assay [6] the target is Bacterial 70S ribosome. Kind of assay: Inhibition of ribosomal activity in erythromycin-resistant Propionibacterium acnes P95 with G2057A mutation in domain V of 23S rRNA assessed as luciferase production by transcriptional and translational assay. In kind it is subcellular, Cutibacterium acnes.
The test system of assay [7] is Cutibacterium acnes. Kind of assay: Antibacterial activity against erythromycin-resistant Propionibacterium acnes P95 with 23S rRNA G2057A mutant. In kind it is functional.
The subject of assay [8] is Cutibacterium acnes. Kind of assay: Antibacterial activity against erythromycin-resistant Propionibacterium acnes with A2059 mutation in domain V of 23S rRNA. In kind it is functional.
Assay [9] addresses Bacterial 70S ribosome. In words: Inhibition of ribosomal activity in erythromycin-sensitive Escherichia coli BL21 assessed as luciferase production by transcriptional and translational assay. In kind it is subcellular.
The target of assay [10] is Bacterial 70S ribosome. In words: Inhibition of ribosomal activity in erythromycin-sensitive Propionibacterium acnes EG7NS assessed as luciferase production by transcriptional and translational assay. In kind it is subcellular, Cutibacterium acnes.
Assay [11] concerns the target Bacterial 70S ribosome. Kind of assay: Inhibition of ribosomal activity in erythromycin-resistant Propionibacterium acnes SW54EA with A2058G mutation in domain V of 23S rRNA assessed as luciferase production by transcriptional and translational assay. In kind it is subcellular, Cutibacterium acnes.
Another assay deals with Escherichia coli. Kind of assay: Antibacterial activity against Escherichia coli BL21. Format: functional.
Assay [12] concerns the target Bacterial 70S ribosome. In words: Displacement of [14C]ERY from erythromycin-sensitive Escherichia coli BL21 ribosome. Format: subcellular.
The target of assay [13] is Bacterial 70S ribosome (Bacteria) (UniProt P0A7V0+P60723+P0AG67+P0A7R5+P0A7R9+P0A7S3+P0A7S9+P0AG59+P0ADZ4+P0A7T3+P0AG63+P0A7T7+P0A7U3+P0A7U7+P68679+P0A7V3+P0A7V8+P0A7W1+P02358+P02359+P0A7W7+P0A7X3+P0A7J3+P0A7J7+P0AA10+P0ADY3+P02413+P0ADY7+P0AG44+P0C018+P0A7K6+P0A7L0+P0A7L3+P0AG48+P61175+P0ADZ0+P60624+P68919+P0A7L8+P0A7M2+P0A7M6+P60422+P0AG51+P0A7N1+P0A7M9+P0A7N4+P0A7N9+P0A7P5+P0A7Q1+Q2EEQ2+P0A7Q6+P60438+P62399+P0AG55+P0A7K2). Kind of assay: (§1) Inhibition of ribosomal activity in erythromycin-resistant Propionibacterium acnes GE4E carrying Erm(X) gene assessed as luciferase production by transcriptional and translational assay. Format: subcellular. Particulars: Cutibacterium acnes, concentration not given here.

In assay [14] the target is Bacterial 70S ribosome. The assay is described as §1. In kind it is subcellular, Cutibacterium acnes.
Assay [15] deals with Bacterial 70S ribosome. Kind of assay: Displacement of [14C]ERY from erythromycin-sensitive Propionibacterium acnes EG7NS ribosome. In kind it is subcellular, Cutibacterium acnes.
The target in assay [16] is Bacterial 70S ribosome. In words: Displacement of [14C]ERY from ribosome in erythromycin-resistant Propionibacterium acnes P95 with G2057A mutation in domain V of 23S rRNA. In kind it is subcellular, Cutibacterium acnes.
Assay [17] relates to Cutibacterium acnes. In words: Antibacterial activity against erythromycin-resistant Propionibacterium acnes SW54EA with 23S rRNA A2058G mutant. In kind it is functional.

Structures are written as SMILES. pIC50, pKd: −log10 of the molar value. Values after ≈ are worked out from the molar mass of the structure shown.

As for `CC[C@H]1OC(=O)[C@H](C)[C@@H](O[C@H]2C[C@@](C)(OC)[C@@H](O)[C@H](C)O2)[C@H](C)[C@@H](O[C@@H]2O[C@H](C)C[C@H](N(C)C)[C@H]2O)[C@](C)(O)C[C@@H](C)C(=O)[C@H](C)[C@@H](O)[C@]1(C)O` [ERYTHROMYCIN], the MIC against Cutibacterium acnes [1] was more than 512 µg/mL; with Cutibacterium acnes [3] it was 1 µg/mL (≈ 1.36 µM); against Cutibacterium acnes [4] it was more than 128 µg/mL; in the assay with Cutibacterium acnes [5] it was not above 0.06 µg/mL; against Cutibacterium acnes [7], 4 µg/mL (≈ 5.45 µM); in the assay with Cutibacterium acnes [8], more than 128 µg/mL. In addition, the minimum inhibitory concentration (MIC) is 128 µg/mL (≈ 174 µM) against Escherichia coli and more than 512 µg/mL with Cutibacterium acnes [17]. In addition, the negative-log IC50 (pIC50) is 5.67 in [2]; 5.66 at Bacterial 70S ribosome [6]; 6.12 at Bacterial 70S ribosome [9]; 6.77 on Bacterial 70S ribosome [10]; 4.06 on Bacterial 70S ribosome [11]; 5.72 on Bacterial 70S ribosome [14]. The pKd is 7.96 at Bacterial 70S ribosome [12], 7.54 at Bacterial 70S ribosome [15] and less than 5.68 at Bacterial 70S ribosome [16]. Besides, the inhibition in assay [13] came to 52%.

With `CC[C@H]1OC(=O)[C@H](C)[C@@H](O[C@H]2C[C@@](C)(OC)[C@@H](O)[C@H](C)O2)[C@H](C)[C@@H](O[C@@H]2O[C@H](C)C[C@H](N(C)C)[C@H]2O)[C@](C)(OC)C[C@@H](C)C(=O)[C@H](C)[C@H]2[C@H](SCCn3cnc4cccnc43)C(=O)O[C@@]21C`, the negative-log IC50 (pIC50) is 6.07 in [2]; 6.92 on Bacterial 70S ribosome [6]; 6.38 on Bacterial 70S ribosome [9]; 6.96 at Bacterial 70S ribosome [10]; 6.59 on Bacterial 70S ribosome [11]; 6.72 on Bacterial 70S ribosome [14]. Besides, the negative logarithm of the Kd (pKd) on Bacterial 70S ribosome [12] was 7.59. Besides, in [13], the inhibition stood at 48%.

The record behind these values is ChEMBL document CHEMBL1151443, “Activity of the novel macrolide BAL19403 against ribosomes from erythromycin-resistant Propionibacterium acnes” (Antimicrob Agents Chemother, 2007).
